# According to patent publication US20240398767A1, “INHIBITORS OF THE MTDH-SND1 PROTEIN COMPLEX FOR CANCER THERAPY” (The Trustees of Princeton University, priority 2021, published 2024):
# Columns and labels:
# [1] = target: T1, MTDH-SND1 interaction in SCP28 tumors (Homo sapiens, UniProt Q7KZF4); assay: In vivo split-luciferase bioluminescence in SCP28 tumors; set-up: species or system NSG female mice; details: 0.25 mg or 0.5 mg via tail-vein injection, 30 min after treatment
# T1 construct: SND1-NLuc and CLuc-MTDH flanked by BamH 1 and Not 1 restriction sites were inserted into pcDNA3.1 and pRVPTO (retrovrial) vectors; expressed in transfected cells; host or cells: SCP28 cells stably transduced with pRVPTO retroviral vectors (packaged in H29 cells); in culture (A5) or as orthotopic tumours in NSG mice (A11)
# Method: FIG. 12A, NSG female mice were inoculated with 10 k of SCP28 cells that express split-luciferase components by MFP injection. Two weeks after injection, the mice were treated with 0.25 mg/mouse or 0.5 mg/mouse of C26-A6 via tail-vein injection. 30 min after the treatment, luciferase activity at primary tumors was measured.
# FIG. 12B, Luciferase activity at primary tumors from mice in FIG. 12A. Data represent mean±SEM. n=3 mice. Significance determined by one-way ANOVA analysis with Dunnett's test for multiple comparisons.
# To test the in vivo blocking effect of C26-A6 on MTDH-SND1 interaction, mice with SCP28 tumors that stably express split-luciferase components were treated with vehicle, 0.25 mg or 0.5 mg of C26-A6 via tail-vein injection followed by bioluminescence imaging.
# PyMT tumorspheres = assay: PyMT tumorsphere viability, apoptosis, cell cycle and western blot; format: cell-based, mouse
# Method: FIG. 14A, Spheres were treated with vehicle or indicated concentrations of C26-A6 for 1 week. The viability of the spheres was then quantified by MTT assay.
# For FIGS. 14B-14I, similar sphere assay as in FIG. 14A was performed. n≥3 independent experiments. Data represent mean±SEM and significance determined by two tailed Student's t-test for all panels in FIGS. 14B-14I.
# FIG. 15C, Sphere assay was performed and treated with vehicle and C26-A6 as in FIG. 14A. The spheres were collected for western blot to analyze the expression of the candidates.
# To obtain insights into the molecular mechanism underlying C26-A6 treatment-induced reduction of cell viability and increase of apoptosis, in vitro sphere assays were employed. […] To further explore the downstream effectors of tumor-suppressive response to C26-A6, GSEA analysis of PyMT tumor with or without C26-A6 treatment was performed.
# [2] = system: E0771-OVA control (shCtrl) cells; assay: E0771-OVA shCtrl cells / OT-I splenocyte co-culture; format: cell-based, mouse; details: 24 hr co-culture
# Text: For FIGS. 33B-33D, E0771-OVA cells with (shTap1/2) or without (shCtrl) Tap1/2 knockdown were co-cultured with OT-I splenocytes with the ratio of 1:10 (tumor cells:splenocytes). Data represent mean±SEM. n=3 independent experiments. Significance determined by one-way ANOVA analysis with Sidak's test for multiple comparisons.
# FIG. 33B, 24 hr after co-culture, tumor cells were collected for examining OVA (H-2K^b-SIINFEKL) expression.
# FIG. 33C, 24 hr after co-culture, tumor cells were collected for examining MHC-I expression.
# FIG. 33D, 24 hr after co-culture, splenocytes were collected for examining CD137 expression.
# MTDH-SND1 suppresses antigen presentation by reducing Tap1/2. To confirm that MTDH-SND1 drives immune evasion through suppressing the Tap1/2 pathway, antigen presentation-deficient cells were generated by knocking down Tap1/2^20. E0771-OVA cells were transduced with lentiviruses expressing Tap1/2-targeting shRNAs. Tap1/2 KD was confirmed by western blot (FIG. 33A), and antigen presentation deficiency upon Tap1/2 KD was also validated (FIGS. 33B, 33C). Next, shCtrl (control shRNA) or Tap1/2 KD cells were co-cultured with OT-I splenocytes together with vehicle or C26-A6 treatment.
# T1 sequence (Q7KZF4 with tags, fused parts or gaps): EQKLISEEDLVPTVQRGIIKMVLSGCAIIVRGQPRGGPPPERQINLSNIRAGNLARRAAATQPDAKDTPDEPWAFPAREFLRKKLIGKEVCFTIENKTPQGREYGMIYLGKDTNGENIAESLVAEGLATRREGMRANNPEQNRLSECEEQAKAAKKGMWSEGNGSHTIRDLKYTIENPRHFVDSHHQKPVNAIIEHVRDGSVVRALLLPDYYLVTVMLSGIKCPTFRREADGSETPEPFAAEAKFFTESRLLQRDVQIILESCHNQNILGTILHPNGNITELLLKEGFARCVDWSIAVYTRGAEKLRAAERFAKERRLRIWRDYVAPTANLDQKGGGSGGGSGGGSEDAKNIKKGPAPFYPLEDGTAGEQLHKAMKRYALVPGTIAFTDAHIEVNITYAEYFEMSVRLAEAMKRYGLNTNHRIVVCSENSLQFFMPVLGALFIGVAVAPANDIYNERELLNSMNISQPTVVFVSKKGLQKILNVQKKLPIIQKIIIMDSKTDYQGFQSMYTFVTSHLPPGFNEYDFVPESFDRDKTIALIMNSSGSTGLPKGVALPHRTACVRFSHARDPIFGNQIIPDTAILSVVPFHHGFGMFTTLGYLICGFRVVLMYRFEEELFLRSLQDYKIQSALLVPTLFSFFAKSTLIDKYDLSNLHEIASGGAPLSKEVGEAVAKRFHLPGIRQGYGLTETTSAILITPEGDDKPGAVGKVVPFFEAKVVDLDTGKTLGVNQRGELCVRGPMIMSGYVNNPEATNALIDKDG
smiles,measurement,setting,value
COc1ccc(Cl)cc1S(=O)(=O)Nc1cccn2nc(C)nc12 [Analog C26-A6],MTDH-SND1 interaction in vivo (luciferase activity at primary tumors),[1],blocks MTDH-SND1 interaction in vivo in a dose-dependent manner
same,"Cdc20, Plk1, and c-Myc expression (western blot)",PyMT tumorspheres,down-regulated
same,cell cycle status,PyMT tumorspheres; 200 μM,induced G2/M cell cycle arrest
same,"survival (live cells, apoptosis)",PyMT tumorspheres; 200 μM,significantly reduced survival
same,"sphere viability (MTT assay), tumorspheres versus MECs","PyMT tumorspheres; indicated concentrations, 1 week",more susceptible
same,antigen presentation and T cell activation,[2],significant increase
